Reference: the supplement of paper PMC11061612

Legend:
Assay in all cases: Bliss excess, mean over the matrix (fraction); higher = more synergy
[1] = test system: D-283MED (Other Solid Carcinomas)
Procedure, shortened: (§1)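 After 24 hours at 37°C and 5% CO2 in 1536-well plates, cells in DMEM/F12 or RPMI plus 10% FBS received two-drug dose matrices for 72 hours. Viability came from CellTiter-Glo 2.0 luminescence and was scaled as inhibition, anchored at 0 by vehicle wells and at 1 by blank wells. Combination Emax is taken as the second-highest inhibition in the matrix, and Bliss excess as the observed combination effect less EA + EB − EA·EB, with EA and EB the single-agent effects.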

[2] = test system: EFM-192A (Breast Carcinoma)
Procedure, shortened: as §1

[3] = test system: EKVX (Non-Small Cell Lung Carcinoma)
Procedure, shortened: as §1

EW-22 (Ewing's Sarcoma) = test system: EW-22 (Ewing's Sarcoma)
Procedure, shortened: as §1

H4 (Low Grade Glioma) = test system: H4 (Low Grade Glioma)
Procedure, shortened: as §1

[4] = test system: HCT-116 (Colorectal Carcinoma)
Procedure, shortened: as §1

MCF7 (Breast Carcinoma) = test system: MCF7 (Breast Carcinoma)
Procedure, shortened: as §1

[5] = test system: MES-SA (Other Solid Carcinomas)
Procedure, shortened: as §1

[6] = test system: NOMO-1 (Acute Myeloid Leukemia)
Procedure, shortened: as §1

[7] = test system: SK-UT-1 (Other Solid Carcinomas)
Procedure, shortened: as §1

[8] = test system: SW948 (Colorectal Carcinoma)
Procedure, shortened: as §1

[9] = test system: YT (Other Blood Carcinomas)
Procedure, shortened: as §1

| SMILES | Bliss excess [1] | Bliss excess [2] | Bliss excess [3] | Bliss excess (EW-22 (Ewing's Sarcoma)) | Bliss excess (H4 (Low Grade Glioma)) | Bliss excess [4] | Bliss excess (MCF7 (Breast Carcinoma)) | Bliss excess [5] | Bliss excess [6] | Bliss excess [7] | Bliss excess [8] | Bliss excess [9] |
| --- | --- | --- | --- | --- | --- | --- | --- | --- | --- | --- | --- | --- |
| CN(CCO)CC[C@H](CSc1ccccc1)Nc1ccc(S(=O)(=O)NC(=O)c2ccc(N3CCC([C@@H](O)c4ccccc4-c4ccc(Cl)cc4)CC3)cc2)cc1S(=O)(=O)C(F)(F)F [AZD4320] + CN(C)CCCOc1ccc(-c2ccc3ncc4c(c3c2)n(C2CCOCC2)c(=O)n4C)cn1 [AZD0156] (first compound max 1 µM, 7x7, partner max 1 µM) | -0.0353 | -0.0468 | -0.0392 | 0.0228 | -0.0334 | -0.0518 | -0.051 | -0.0315 | 0.0017 | -0.0284 | -0.0566 | -0.0281 |
| CN(CCO)CC[C@H](CSc1ccccc1)Nc1ccc(S(=O)(=O)NC(=O)c2ccc(N3CCC([C@@H](O)c4ccccc4-c4ccc(Cl)cc4)CC3)cc2)cc1S(=O)(=O)C(F)(F)F [AZD4320] + C[C@@H]1COCCN1C2=NC(=NC(=C2)C3(CC3)[S@](=N)(=O)C)C4=C5C=CNC5=NC=C4 [AZD6738] (first compound max 1 µM, 7x7, partner max 10 µM) | 0.0139 | -0.0226 | -0.0458 | 0.0762 | -0.0249 | -0.0143 | -0.0145 | -0.0382 | 0.0303 | 0.0253 | -0.0873 | -0.0251 |
| CN(CCO)CC[C@H](CSc1ccccc1)Nc1ccc(S(=O)(=O)NC(=O)c2ccc(N3CCC([C@@H](O)c4ccccc4-c4ccc(Cl)cc4)CC3)cc2)cc1S(=O)(=O)C(F)(F)F [AZD4320] + Cc1cc2ncnn2cc1Nc1ncc2c(n1)n(C1CCOCC1)c(=O)n2C [AZD7648] (first compound max 1 µM, 7x7, partner max 10 µM) | 0.0051 | -0.0265 | -0.0398 | -0.0165 | -0.0355 | -0.0197 | -0.0357 | -0.0399 | 0.0103 | -0.0195 | -0.0233 | 0.0291 |
| Cc1c2c(nn1C)CSCc1cc(n(C)n1)CSc1cc(c3ccccc3c1)OCCCc1c(C(=O)O)n(C)c3c-2c(Cl)ccc13 [AZD5991] + C1CN(CCC1(C(=O)N[C@@H](CCO)C2=CC=C(C=C2)Cl)N)C3=NC=NC4=C3C=CN4 [Capivasertib] (first compound max 1 µM, 7x7, partner max 3 µM) | 0.0094 | 0.0579 | -0.015 | 0.0007 | 0.0378 | -0.0275 | 0.0778 | -0.0144 | 0.0814 | 0.0297 | 0.0308 | -0.0466 |
| Cc1c2c(nn1C)CSCc1cc(n(C)n1)CSc1cc(c3ccccc3c1)OCCCc1c(C(=O)O)n(C)c3c-2c(Cl)ccc13 [AZD5991] + C=CCn1c(=O)c2cnc(Nc3ccc(N4CCN(C)CC4)cc3)nc2n1-c1cccc(C(C)(C)O)n1 [AZD1775] (first compound max 1 µM, partner max 1 µM) | -0.0583 | -0.0297 | 0.0335 | 0.0756 | -0.042 | 0.0226 | -0.0622 | 0.0402 | -0.01 | -0.0534 | -0.13 | -0.0725 |
| Cc1c2c(nn1C)CSCc1cc(n(C)n1)CSc1cc(c3ccccc3c1)OCCCc1c(C(=O)O)n(C)c3c-2c(Cl)ccc13 [AZD5991] + CC1(C)CCC(CN2CCN(c3ccc(C(=O)NS(=O)(=O)c4ccc(NCC5CCOCC5)c([N+](=O)[O-])c4)c(Oc4cnc5[nH]ccc5c4)c3)CC2)=C(c2ccc(Cl)cc2)C1 [Venetoclax] (first compound max 1 µM, 7x7, partner max 1 µM) | 0.0701 | 0.0257 | -0.0423 | 0.128 | 0.0384 | -0.0317 | 0.0623 | -0.0068 | 0.256 | -0.0095 | -0.003 | -0.0017 |
| Cc1c2c(nn1C)CSCc1cc(n(C)n1)CSc1cc(c3ccccc3c1)OCCCc1c(C(=O)O)n(C)c3c-2c(Cl)ccc13 [AZD5991] + CCN(CCO)CCCOc1ccc2c(Nc3cc(CC(=O)Nc4cccc(F)c4)[nH]n3)ncnc2c1 [AZD2811] (first compound max 1 µM, 7x7, partner max 1 µM) | 0.051 | 0.0012 | -0.0356 | 0.0711 | 0.0207 | 0.0295 | 0.0081 | 0.138 | 0.0894 | 0.0125 | -0.0014 | 0.0185 |
| Cc1c2c(nn1C)CSCc1cc(n(C)n1)CSc1cc(c3ccccc3c1)OCCCc1c(C(=O)O)n(C)c3c-2c(Cl)ccc13 [AZD5991] + CN(C)CCCOc1ccc(-c2ccc3ncc4c(c3c2)n(C2CCOCC2)c(=O)n4C)cn1 [AZD0156] (first compound max 1 µM, 7x7, partner max 1 µM) | 0.0096 | -0.0427 | -0.0139 | -0.0015 | 0.0376 | 0.0431 | -0.0063 | 0.017 | -0.0177 | -0.0195 | -0.0205 | -0.0197 |
| Cc1c2c(nn1C)CSCc1cc(n(C)n1)CSc1cc(c3ccccc3c1)OCCCc1c(C(=O)O)n(C)c3c-2c(Cl)ccc13 [AZD5991] + C[C@@H]1COCCN1C2=NC(=NC(=C2)C3(CC3)[S@](=N)(=O)C)C4=C5C=CNC5=NC=C4 [AZD6738] (first compound max 1 µM, 7x7, partner max 10 µM) | -0.0109 | 0.0335 | 0.0337 | 0.0236 | 0.0274 | 0.0475 | 0.0286 | 0.0653 | -0.0006 | -0.0115 | 0.0387 | -0.0498 |
| Cc1c2c(nn1C)CSCc1cc(n(C)n1)CSc1cc(c3ccccc3c1)OCCCc1c(C(=O)O)n(C)c3c-2c(Cl)ccc13 [AZD5991] + C[C@@H](Nc1cc(F)cc(F)c1)c1cc(C(=O)N(C)C)cc2c(=O)cc(N3CCOCC3)oc12 [AZD8186] (first compound max 1 µM, 7x7, partner max 3 µM) | -0.0186 | -0.0207 | 0.0062 | -0.0396 | -0.0054 | -0.0421 | -0.01 | -0.0381 | 0.0361 | -0.0104 | -0.0498 | 0.0223 |
| Cc1c2c(nn1C)CSCc1cc(n(C)n1)CSc1cc(c3ccccc3c1)OCCCc1c(C(=O)O)n(C)c3c-2c(Cl)ccc13 [AZD5991] + Cc1cc2ncnn2cc1Nc1ncc2c(n1)n(C1CCOCC1)c(=O)n2C [AZD7648] (first compound max 1 µM, 7x7, partner max 10 µM) | -0.0158 | -0.0394 | -0.069 | -0.041 | 0.0222 | 0.013 | 0.0011 | 0.0111 | 0.0486 | -0.0252 | -0.0328 | 0.0305 |
| Cc1c2c(nn1C)CSCc1cc(n(C)n1)CSc1cc(c3ccccc3c1)OCCCc1c(C(=O)O)n(C)c3c-2c(Cl)ccc13 [AZD5991] + Cn1cnc2c(F)c(Nc3ccc(Br)cc3Cl)c(C(=O)NOCCO)cc21 [Selumetinib] (first compound max 1 µM, 7x7, partner max 3 µM) | -0.0265 | -0.0116 | -0.0474 | -0.019 | -0.0265 | -0.0049 | -0.0435 | -0.0247 | 0.135 | -0.0063 | -0.0388 | -0.0051 |
| Cc1cc2ncnn2cc1Nc1ncc2c(n1)n(C1CCOCC1)c(=O)n2C [AZD7648] + C=CCn1c(=O)c2cnc(Nc3ccc(N4CCN(C)CC4)cc3)nc2n1-c1cccc(C(C)(C)O)n1 [AZD1775] (first compound max 10 µM, partner max 1 µM) | -0.0959 | 0.0338 | 0.0061 | -0.0043 | -0.082 | 0.008 | 0.0442 | -0.0182 | 0.0204 | 0.0203 | -0.047 | -0.124 |
| Cc1cc2ncnn2cc1Nc1ncc2c(n1)n(C1CCOCC1)c(=O)n2C [AZD7648] + CCN(CCO)CCCOc1ccc2c(Nc3cc(CC(=O)Nc4cccc(F)c4)[nH]n3)ncnc2c1 [AZD2811] (first compound max 10 µM, 7x7, partner max 1 µM) | 0.0609 | -0.0175 | -0.0199 | -0.0261 | 0.006 | 0.0304 | -0.0135 | 0.0834 | 0.131 | 0.0407 | -0.0979 | 0.0407 |
| Cc1cc2ncnn2cc1Nc1ncc2c(n1)n(C1CCOCC1)c(=O)n2C [AZD7648] + CN(C)CCCOc1ccc(-c2ccc3ncc4c(c3c2)n(C2CCOCC2)c(=O)n4C)cn1 [AZD0156] (first compound max 10 µM, 7x7, partner max 1 µM) | -0.0339 | -0.0119 | 0.0001 | 0.0335 | -0.0253 | 0.0277 | -0.0048 | 0.0228 | 0.0371 | 0.0143 | 0.0122 | -0.0389 |
| Cc1cc2ncnn2cc1Nc1ncc2c(n1)n(C1CCOCC1)c(=O)n2C [AZD7648] + C[C@@H]1COCCN1C2=NC(=NC(=C2)C3(CC3)[S@](=N)(=O)C)C4=C5C=CNC5=NC=C4 [AZD6738] (first compound max 10 µM, 7x7, partner max 10 µM) | -0.1 | 0.0421 | 0.0353 | 0.0058 | -0.0116 | -0.0102 | -0.0192 | 0.0541 | 0.0248 | 0.0471 | -0.0422 | -0.0476 |
| COc1cccc2c1C(=O)c1c(O)c3c(c(O)c1C2=O)C[C@@](O)(C(=O)CO)C[C@@H]3O[C@H]1C[C@H](N)[C@H](O)[C@H](C)O1 [Doxorubicin] + Cc1cc2ncnn2cc1Nc1ncc2c(n1)n(C1CCOCC1)c(=O)n2C [AZD7648] (first compound max 1 µM, 7x7, partner max 10 µM) | 0.0461 | -0.0216 | 0.0083 | 0.061 | 0.0066 | 0.0556 | 0.058 | 0.0696 | 0.128 | 0.093 | 0.0438 | 0.0344 |
| COc1cccc(OCCCN)c1-c1cc(Nc2cnc(C#N)cn2)n[nH]1 [Prexasertib] + C=CCn1c(=O)c2cnc(Nc3ccc(N4CCN(C)CC4)cc3)nc2n1-c1cccc(C(C)(C)O)n1 [AZD1775] (first compound max 1 µM, partner max 1 µM) | 0.079 | 0.0662 | -0.024 | 0.223 | 0.0726 | 0.083 | 0.0197 | 0.078 | 0.0539 | 0.071 | 0.0608 | -0.0086 |
| COc1cccc(OCCCN)c1-c1cc(Nc2cnc(C#N)cn2)n[nH]1 [Prexasertib] + CN(C)CCCOc1ccc(-c2ccc3ncc4c(c3c2)n(C2CCOCC2)c(=O)n4C)cn1 [AZD0156] (first compound max 1 µM, 7x7, partner max 1 µM) | 0.0116 | 0.0078 | -0.0039 | -0.05 | -0.0309 | -0.0194 | 0.149 | 0.0641 | -0.0154 | -0.0039 | 0.0294 | -0.0114 |
